The assay has as its target USP7 (Homo sapiens (Human), UniProt Q93009). Description: USP7 fluorescence polarisation (FP) assay with ubiquitin-Lys-TAMRA substrate. The class given is biochemical. The conditions noted are these: biochemical inhibition. As for the experimental part: USP7 activity was monitored in a fluorescence polarisation (FP) homogeneous assay using the isopeptide ubiquitin-Lys-TAMRA substrate (U-558, Boston Biochem). Full-length USP7 was purchased from Boston Biochem (His6-USP7FL, E-519). Unless otherwise stated, all other reagents were purchased from Sigma-Aldrich. Enzymatic reactions were conducted in black flat-bottom low volume polystyrene 384-well plates (Grenier) and 15 μL total volume. USP7 (2.5 nM, 5 μL) was incubated in assay buffer (50 mM HEPES (pH 7.2), 150 mM NaCl, 5 mM DTT, 0.05% BSA (w/v), 0.05% CHAPS) in the presence or absence of inhibitor (5 μL). Inhibitors were stored as 10 mM DMSO stocks in an inert environment (low humidity, dark, low oxygen, room temperature) using a Storage Pod System and serial dilutions were prepared in buffer just prior to the assay (from 200 to 0.003 μM, 11 dp curve). Following incubation at room temperature for 30 min, the enzymatic reactions were initiated by dispensing the Ub substrate (50 nM, 5 μL). FP was measured every 5 min over a period of 1.5 h (within the linear range of the assay) using a Pherastar FSX (BMG Labtech) exciting at 530 nm and measuring the amount of parallel and perpendicular light at 575 nm. The FP signal was subsequently normalised to the control without compound present. Data were plotted and fitted, and the concentrations resulting in 50% inhibition (IC50) were calculated using the non-linear regression curve fitting model using GraphPad Prism.

The mark [1] stands for this setting: read-out: USP7 IC50 activity (Table 3a, classes).
Where [2] appears, read: unit not given in Table 3b (Table 1 and key of Table 3a use μM), read-out: USP7 IC50 activity (Table 3b).

The results in this text go back to patent US20250122223A1, “HETEROCYCLIC COMPOUNDS AS UBIQUITIN SPECIFIC PROTEASE 7 INHIBITORS” (ALMAC DISCOVERY LIMITED, priority 2022, published 2025).

Molecules are shown by their SMILES. Read-outs that look alike come from different tables or passages of the source.

USP7, sequence (Q93009 whole entry): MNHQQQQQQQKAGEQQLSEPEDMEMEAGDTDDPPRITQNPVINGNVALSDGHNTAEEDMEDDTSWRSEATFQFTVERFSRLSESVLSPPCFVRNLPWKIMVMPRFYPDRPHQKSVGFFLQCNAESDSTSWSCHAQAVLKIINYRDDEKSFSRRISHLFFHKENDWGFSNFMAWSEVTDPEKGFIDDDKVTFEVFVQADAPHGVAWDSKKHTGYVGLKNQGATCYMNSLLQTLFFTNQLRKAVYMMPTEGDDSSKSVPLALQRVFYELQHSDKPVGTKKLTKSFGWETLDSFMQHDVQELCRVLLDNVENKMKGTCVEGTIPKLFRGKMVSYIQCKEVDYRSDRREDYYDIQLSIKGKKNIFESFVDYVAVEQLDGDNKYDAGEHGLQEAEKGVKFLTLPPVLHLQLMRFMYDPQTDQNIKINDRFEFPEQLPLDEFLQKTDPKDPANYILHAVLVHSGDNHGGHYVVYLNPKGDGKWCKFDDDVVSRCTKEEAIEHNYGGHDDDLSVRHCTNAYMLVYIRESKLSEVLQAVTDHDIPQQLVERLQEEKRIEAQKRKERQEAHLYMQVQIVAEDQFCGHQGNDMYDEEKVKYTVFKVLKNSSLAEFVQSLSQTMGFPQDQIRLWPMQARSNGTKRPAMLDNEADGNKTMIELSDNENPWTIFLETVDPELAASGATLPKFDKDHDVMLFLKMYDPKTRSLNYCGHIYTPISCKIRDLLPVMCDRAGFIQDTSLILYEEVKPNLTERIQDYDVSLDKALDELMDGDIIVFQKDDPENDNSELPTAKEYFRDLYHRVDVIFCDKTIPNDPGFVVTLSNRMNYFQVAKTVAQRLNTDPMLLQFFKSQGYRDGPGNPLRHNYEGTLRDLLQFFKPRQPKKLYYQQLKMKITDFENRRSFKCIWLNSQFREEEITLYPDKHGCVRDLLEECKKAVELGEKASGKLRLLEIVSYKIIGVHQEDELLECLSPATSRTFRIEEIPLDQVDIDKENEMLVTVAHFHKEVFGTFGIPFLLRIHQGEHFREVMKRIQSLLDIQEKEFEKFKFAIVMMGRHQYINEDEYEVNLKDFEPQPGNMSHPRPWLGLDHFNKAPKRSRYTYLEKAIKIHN

The term IC50 denotes the midpoint of a concentration-inhibition curve. For `C[C@H]1CN[C@H](c2ccc(-n3ccc4c(=O)n(CC5(O)CCN(C(=O)c6ccc(Cl)cc6)CC5)cnc43)cc2)CO1` (racemic) [Example 17, rac-3-((1-(4-Chlorobenzoyl)-4-hydroxypiperidin-4-yl)methyl)-7-(4-((3R,6S)-6-methylmorpholin-3-yl)phenyl)-3,7-dihydro-4H-pyrrolo[2,3-d]pyrimidin-4-one], the concentration for half-maximal inhibition (IC50) was 0.1 to 0.25 µM under setting [1] and 0.175 µM under setting [2].
With `O=C(N1CCC(O)(Cn2cnc3c(cc(Cl)n3-c3ccc([C@@H]4COC5(CCC5)CN4)cc3)c2=O)CC1)C1(C2CC2)CC1` (racemic) [Example 43, 7-(4-(5-Oxa-8-azaspiro[3.5]nonan-7-yl)phenyl)-3-((1-([1,1′-bi(cyclopropane)]-1-carbonyl)-4-hydroxypiperidin-4-yl)methyl)-6-chloro-3,7-dihydro-4H-pyrrolo[2,3-d]pyrimidin-4-one], the half-maximal inhibitory concentration (IC50) is less than 0.1 µM under setting [1] and 0.05 µM under setting [2].
For `O=C(c1ccc(Cl)cc1)N1CCC(O)(Cn2cnc3c(cc(Cl)n3-c3ccc([C@@H]4COC5(CCC5)CN4)cc3)c2=O)CC1` (racemic) [Example 44, 7-(4-(5-Oxa-8-azaspiro[3.5]nonan-7-yl)phenyl)-6-chloro-3-((1-(4-chlorobenzoyl)-4-hydroxypiperidin-4-yl)methyl)-3,7-dihydro-4H-pyrrolo[2,3-d]pyrimidin-4-one] the same measures were 0.1 to 0.25 µM and 0.113 µM.
On to `CC1(C)CN[C@@H](c2ccc(-n3c(Cl)cc4c(=O)n(CC5(O)CCN(C(=O)c6ccc(Cl)cc6)CC5)cnc43)cc2)CO1` (single isomer, unassigned) [Example 23], for which the IC50 was 0.1 to 0.25 µM under setting [1] and 0.143 µM under setting [2].
For `C[C@H]1COC[C@@H](c2ccc(-n3c(Cl)cc4c(=O)n(CC5(O)CCN(C(=O)c6ccc(Cl)cc6)CC5)cnc43)cc2)N1` (single isomer, unassigned) [Example 26] the same measures were 0.1 to 0.25 µM and 0.161 µM.
For `C[C@@H]1COC[C@H](c2ccc(-n3c(Cl)cc4c(=O)n(CC5(O)CCN(C(=O)c6ccc(Cl)cc6)CC5)cnc43)cc2)N1` (single isomer, unassigned) [Example 27] the same measures were 0.1 to 0.25 µM and 0.194 µM.
The corresponding values for `CC1(C)CN[C@@H](c2ccc(-n3c(Cl)cc4c(=O)n(CC5(O)CCN(C(=O)c6ccc(F)cc6)CC5)cnc43)cc2)CO1` (single isomer, unassigned) [Example 28] are 0.1 to 0.25 µM and 0.218 µM.
With `CC1(C)CN[C@H](c2ccc(-n3c(Cl)cc4c(=O)n(CC5(O)CCN(C(=O)c6ccc(F)cc6)CC5)cnc43)cc2)CO1` (single isomer, unassigned) [Example 29], the IC50 runs as follows: under setting [1], 0.1 to 0.25 µM; under setting [2], 0.118 µM.
`C[C@H]1CN[C@H](c2ccc(-n3c(Cl)cc4c(=O)n(CC5(O)CCN(C(=O)[C@@]6(C)C[C@@H]6C(F)(F)F)CC5)cnc43)cc2)CO1` (single isomer, unassigned) [Example 33, 6-Chloro-3-((4-hydroxy-1-((1R,2R)-1-methyl-2-(trifluoromethyl)cyclopropane-1-carbonyl)piperidin-4-yl)methyl)-7-(4-((3R,6S)-6-methylmorpholin-3-yl)phenyl)-3,7-dihydro-4H-pyrrolo[2,3-d]pyrimidin-4-one or 6-chloro-3-((4-hydroxy-1-((1S,2S)-1-methyl-2-(trifluoromethyl)cyclopropane-1-carbonyl)piperidin-4-yl)methyl)-7-(4-((3R,6S)-6-methylmorpholin-3-yl)phenyl)-3,7-dihydro-4H-pyrrolo[2,3-d]pyrimidin-4-one]: the half-inhibitory concentration (IC50) is 0.1 to 0.25 µM under setting [1] and 0.226 µM under setting [2].
The corresponding values for `CC1(C)CN[C@H](c2ccc(-n3c(Cl)cc4c(=O)n(CC5(O)CCN(C(=O)c6ccc(Cl)cc6)CC5)cnc43)cc2)CO1` (single isomer, unassigned) [Example 34] are less than 0.1 µM and 0.088 µM.
As to `CC1(C)CN[C@H](c2ccc(-n3c(Cl)cc4c(=O)n(CC5(O)CCN(C(=O)C6(C7CC7)CC6)CC5)cnc43)cc2)CO1` (single isomer, unassigned) [Example 40], the 50% inhibitory concentration (IC50) reads like this: under setting [1], 0.1 to 0.25 µM; under setting [2], 0.156 µM.
For `CC1(C)CN[C@H](c2ccc(-n3c(Cl)cc4c(=O)n(CC5(O)CCN(C(=O)C6(C7CC7)CC6)CC5)cnc43)cc2)CO1` (single isomer, unassigned) [Example 41] the same measures were less than 0.1 µM and 0.079 µM.
`O=C(c1ccc(Cl)cc1)N1CCC(O)(Cn2cnc3c(cc(Cl)n3-c3ccc([C@H]4CO[C@H](C5CC5)CN4)cc3)c2=O)CC1` (single isomer, unassigned) [Example 61]: the IC50 by setting is: under setting [1], 0.1 to 0.25 µM; under setting [2], 0.128 µM.
For `O=C(c1ccc(Cl)cc1)N1CCC(O)(Cn2cnc3c(cc(Cl)n3-c3ccc([C@@H]4CO[C@@H](C5CC5)CN4)cc3)c2=O)CC1` (single isomer, unassigned) [Example 64] the same measures were 0.1 to 0.25 µM and 0.11 µM.
For `C[C@H]1CN[C@@H](c2ccc(-n3c(Cl)cc4c(=O)n(CC5(O)CCN(C(=O)c6ccc(Cl)cc6)CC5)cnc43)cc2)CO1` (single isomer, unassigned) [Example 68] the same measures were 0.25 to 2 µM and 0.702 µM.
For `C[C@@H]1CN[C@H](c2ccc(-n3c(Cl)cc4c(=O)n(CC5(O)CCN(C(=O)c6ccc(Cl)cc6)CC5)cnc43)cc2)CO1` (single isomer, unassigned) [Example 69] the same measures were 0.25 to 2 µM and 0.586 µM.
With `CC1(C(=O)N2CCC(O)(Cn3cnc4c(cc(Cl)n4-c4ccc([C@H]5COCCN5)cc4)c3=O)CC2)CC1` (single isomer, unassigned) [Example 70], the concentration for half-maximal inhibition (IC50) by setting is: under setting [1], less than 0.1 µM; under setting [2], 0.022 µM.
The corresponding values for `CC1(C(=O)N2CCC(O)(Cn3cnc4c(cc(Cl)n4-c4ccc([C@@H]5COCCN5)cc4)c3=O)CC2)CC1` (single isomer, unassigned) [Example 71] are less than 0.1 µM and 0.094 µM.
The corresponding values for `Cc1cc(-n2c(Cl)cc3c(=O)n(CC4(O)CCN(C(=O)C5(C)CC5)CC4)cnc32)ccc1[C@H]1COCCN1` (single isomer, unassigned) [Example 73] are less than 0.1 µM and 0.018 µM.
The corresponding values for `Cc1cc(-n2c(Cl)cc3c(=O)n(CC4(O)CCN(C(=O)C5(C)CC5)CC4)cnc32)ccc1[C@@H]1COCCN1` (single isomer, unassigned) [Example 74] are 0.1 to 0.25 µM and 0.112 µM.
For the compound `O=C(c1ccc(Cl)cc1)N1CCC(O)(Cn2cnc3c(cc(Cl)n3-c3ccc([C@H]4COCCN4)cc3)c2=O)CC1` (single isomer, unassigned) [Example 76], the IC50 reads like this: under setting [1], less than 0.1 µM; under setting [2], 0.038 µM.
On to `O=C(c1ccc(Cl)cc1)N1CCC(O)(Cn2cnc3c(cc(Cl)n3-c3ccc([C@@H]4COCCN4)cc3)c2=O)CC1` (single isomer, unassigned) [Example 77], for which the concentration for half-maximal inhibition (IC50) under setting [1] was less than 0.1 µM and the IC50 under setting [2] amounted to 0.052 µM.
For `O=C(C[C@H](c1ccccc1)C(F)(F)F)N1CCC(O)(Cn2cnc3c(cc(Cl)n3-c3ccc([C@H]4COCCN4)cc3)c2=O)CC1` (single isomer, unassigned) [Example 78] the same measures were less than 0.1 µM and 0.016 µM.
For `O=C(N1CCC(O)(Cn2cnc3c(cc(Cl)n3-c3ccc([C@H]4COCCN4)cc3)c2=O)CC1)C1(C2CC2)CC1` (single isomer, unassigned) [Example 79] the same measures were less than 0.1 µM and 0.039 µM.
For `O=C(N1CCC(O)(Cn2cnc3c(cc(Cl)n3-c3ccc([C@@H]4COCCN4)cc3)c2=O)CC1)C1(C2CC2)CC1` (single isomer, unassigned) [Example 80] the same measures were less than 0.1 µM and 0.041 µM.
On to `O=C(C[C@H](c1ccccc1)C(F)(F)F)N1CCC(O)(Cn2cnc3c(cc(Cl)n3-c3ccc([C@@H]4COCCN4)cc3)c2=O)CC1` (single isomer, unassigned) [Example 81], for which the IC50 is less than 0.1 µM under setting [1] and 0.015 µM under setting [2].
The corresponding values for `O=C(C[C@H](c1ccccc1)C(F)F)N1CCC(O)(Cn2cnc3c(cc(Cl)n3-c3ccc([C@@H]4COCCN4)cc3)c2=O)CC1` (single isomer, unassigned) [Example 85] are less than 0.1 µM and 0.006 µM.
`CC1(C)CN[C@H](c2ccc(-n3c(Cl)cc4c(=O)n(CC5(O)CCN(C(=O)C6(C)CC6)CC5)cnc43)cc2)CO1` (single isomer, unassigned) [Example 98, (R)-6-Chloro-7-(4-(6,6-dimethylmorpholin-3-yl)phenyl)-3-((4-hydroxy-1-(1-methylcyclopropane-1-carbonyl)piperidin-4-yl)methyl)-3,7-dihydro-4H-pyrrolo[2,3-d]pyrimidin-4-one or (S)-6-chloro-7-(4-(6,6-dimethylmorpholin-3-yl)phenyl)-3-((4-hydroxy-1-(1-methylcyclopropane-1-carbonyl)piperidin-4-yl)methyl)-3,7-dihydro-4H-pyrrolo[2,3-d]pyrimidin-4-one]: the concentration for half-maximal inhibition (IC50) is less than 0.1 µM under setting [1] and 0.045 µM under setting [2].
